Measured values from patent publication US8952043B2, “Benzoxepin PI3K inhibitor compounds and methods of use” (Genentech, Inc., priority 2009, dated 2015).
pEC50, pIC50: −log10 of the molar value.

Columns and labels:
[1] = biological target: T1, p110 alpha PI3K (Homo sapiens, UniProt P42336); assay: p110α (alpha) PI3K binding assay (fluorescence polarization); settings: read-out: IC50 (inhibition of PI3K alpha, p110 alpha)
T1 construct: purchased Upstate Cell Signaling Solutions, Charlottesville, Va
Procedure: Determination of the PI3 kinase activity of a Formula I compound is possible by a number of direct and indirect detection methods. Certain exemplary compounds described herein were assayed for their p110α (alpha), and other isoform, PI3K binding activity (Example 601) and in vitro activity against tumor cells (Example 602).
Binding Assays: Initial polarization experiments were performed on an Analyst HT 96-384 (Molecular Devices Corp, Sunnyvale, Calif.). […] After an incubation time of 30 minutes at room temperature, the reactions were stopped by the addition of GRP-1 and PIP3-TAMRA probe (Echelon-Inc., Salt Lake City, Utah.) 100 nM and 5 nM final concentrations respectively. Read with standard cut-off filters for the rhodamine fluorophore (λex=530 nm; λem=590 nm) in 384-well black low volume Proxiplates (PerkinElmer, Wellesley, Mass.) Fluorescence polarization values were plotted as a function of the protein concentration, and the EC50 values were obtained by fitting the data to a 4-parameter equation using KaleidaGraph software (Synergy software, Reading, Pa.). This experiment also establishes the appropriate protein concentration to use in subsequent competition experiments with inhibitors.
Inhibitor IC50 values were determined by addition of the 0.04 mg/mL p110 alpha PI3K (final concentration) combined with PIP2 ([…] final concentration) to wells containing 1:3 serial dilutions of the antagonists in a final concentration of […] ATP (Cell Signaling Technology, Inc., Danvers, Mass.) in the polarization buffer. After an incubation time of 30 minutes at room temperature, the reactions were stopped by the addition of GRP-1 and PIP3-TAMRA probe (Echelon-Inc., Salt Lake City, Utah.) 100 nM and 5 nM final concentrations respectively. Read with standard cut-off filters for the rhodamine fluorophore (λex=530 nm; λem=590 nm) in 384-well black low volume proxi plates (PerkinElmer, Wellesley, Mass.) Fluorescence polarization values were plotted as a function of the antagonist concentration, and the IC50 values were obtained by fitting the data to a 4-parameter equation in Assay Explorer software (MDL, San Ramon, Calif.).
Alternatively, inhibition of PI3K was determined in a radiometric assay using purified, recombinant enzyme and ATP at a concentration of 1 uM. The Formula I compound was serially diluted in 100% DMSO. The kinase reaction was incubated for 1 hr at room temperature, and the reaction was terminated by the addition of PBS. IC50 values were subsequently determined using sigmoidal dose-response curve fit (variable slope).

[2] = test system: AU565; assay: CellTiter-Glo cell proliferation assay, AU565; format: cell-based; settings: Homo sapiens, Breast, mutation status WT
Procedure: (§1) The in vitro potency of Formula I exemplary compounds was measured by the cell proliferation assay, CellTiter-Glo® Luminescent Cell Viability Assay, commercially available from Promega Corp., Madison, Wis. (Example 602). This homogeneous assay method is based on the recombinant expression of Coleoptera luciferase (U.S. Pat. Nos. 5,583,024; 5,674,713; 5,700,670) and determines the number of viable cells in culture based on quantitation of the ATP present, an indicator of metabolically active cells (Crouch et al (1993) J. Immunol. Meth. 160:81-88; U.S. Pat. No. 6,602,677). The CellTiter-Glo® Assay was conducted in 96 or 384 well format, making it amenable to automated high-throughput screening (HTS) (Cree et al (1995) AntiCancer Drugs 6:398-404). The homogeneous assay procedure involves adding the single reagent (CellTiter-Glo® Reagent) directly to cells cultured in serum-supplemented medium. Cell washing, removal of medium and multiple pipetting steps are not required. The system detects as few as 15 cells/well in a 384-well format in 10 minutes after adding reagent and mixing.
(§2) Efficacy of Formula I compounds were measured by a cell proliferation assay employing the following protocol (Promega Corp. Technical Bulletin TB288; Mendoza et al (2002) Cancer Res. 62:5485-5488):
(§3) 1. An aliquot of 100 μl of cell culture containing about 10^4 cells (PC3, Detroit562, or MDAMB361.1) in medium was deposited in each well of a 384-well, opaque-walled plate.
(§4) 2. Control wells were prepared containing medium and without cells.
(§5) 3. The compound was added to the experimental wells and incubated for 3-5 days.
(§6) 4. The plates were equilibrated to room temperature for approximately 30 minutes.
(§7) 5. A volume of CellTiter-Glo Reagent equal to the volume of cell culture medium present in each well was added.
(§8) 6. The contents were mixed for 2 minutes on an orbital shaker to induce cell lysis.
(§9) 7. The plate was incubated at room temperature for 10 minutes to stabilize the luminescence signal.
(§10) 8. Luminescence was recorded and reported in graphs as RLU=relative luminescence units.
(§11) Alternatively, cells were seeded at optimal density in a 96 well plate and incubated for 4 days in the presence of test compound. Alamar Blue™ was subsequently added to the assay medium, and cells were incubated for 6 hr before reading at 544 nm excitation, 590 nm emission. EC50 values were calculated using a sigmoidal dose response curve fit. […] It is commonly used as a measure of drug potency.
(§12) The anti-proliferative effects of Formula I exemplary compounds were measured by the CellTiter-Glo® Assay against various tumor cell lines, including the following: […]

[3] = test system: BT474; assay: CellTiter-Glo cell proliferation assay, BT474; format: cell-based; settings: Homo sapiens, BT-474, Breast, mutation status PI3K(amped)
Procedure: as §1, §2
1. […]
as §9, §10
(§13) Alternatively, cells were seeded at optimal density in a 96 well plate and incubated for 4 days in the presence of test compound. Alamar Blue™ was subsequently added to the assay medium, and cells were incubated for 6 hr before reading at 544 nm excitation, 590 nm emission. EC50 values were calculated using a sigmoidal dose response curve fit. […]
as §12

[4] = test system: EVSA-T; assay: CellTiter-Glo cell proliferation assay, EVSA-T; format: cell-based; settings: Homo sapiens, Breast, mutation status PTEN
Procedure: as §1, §2, §3, §4, §5, §6, §7, §8, §9, §10, §11, §12

[5] = test system: HCC1954; assay: CellTiter-Glo cell proliferation assay, HCC1954; format: cell-based; settings: Homo sapiens, Breast, mutation status PI3K
Procedure: as §1, §2
1. […]
as §9, §10, §13, §12

[6] = test system: KPL4; assay: CellTiter-Glo cell proliferation assay, KPL4; format: cell-based; settings: Breast, mutation status PI3K
Procedure: as §1, §2
1. […]
as §9, §10, §13, §12

[7] = test system: MDA-MB-361.1; assay: CellTiter-Glo cell proliferation assay, MDA-MB-361.1; format: cell-based; settings: Breast, mutation status PI3K
Procedure: as §1, §2, §3, §4, §5, §6, §7, §8, §9, §10, §11, §12

[8] = test system: MFM223; assay: CellTiter-Glo cell proliferation assay, MFM223; format: cell-based; settings: Homo sapiens, MFM-223, Breast, mutation status PI3K
Procedure: as §1, §2
1. […]
as §9, §10, §13, §12

[9] = test system: T47D; assay: CellTiter-Glo cell proliferation assay, T47D; format: cell-based; settings: Homo sapiens, Breast, mutation status PI3K
Procedure: as §1, §2
1. […]
as §9, §10, §13, §12

[10] = test system: KM12; assay: CellTiter-Glo cell proliferation assay, KM12; format: cell-based; settings: Homo sapiens, Colon, mutation status PTEN
Procedure: (§14) The in vitro potency of Formula I exemplary compounds was measured by the cell proliferation assay, CellTiter-Glo® Luminescent Cell Viability Assay, commercially available from Promega Corp., Madison, Wis. (Example 602). This homogeneous assay method is based on the recombinant expression of Coleoptera luciferase (U.S. Pat. Nos. 5,583,024; 5,674,713; 5,700,670) and determines the number of viable cells in culture based on quantitation of the ATP present, an indicator of metabolically active cells (Crouch et al (1993) J. Immunol. Meth. 160:81-88; U.S. Pat. No. 6,602,677). […]
(§15) Efficacy of Formula I compounds were measured by a cell proliferation assay employing the following protocol (Promega Corp. Technical Bulletin TB288; Mendoza et al (2002) Cancer Res. 62:5485-5488): […]
as §9, §10, §13

[11] = test system: MDST8; assay: CellTiter-Glo cell proliferation assay, MDST8; format: cell-based; settings: Colon, mutation status PTEN
Procedure: as §14, §15, §9, §10, §13

[12] = test system: U87MG; assay: CellTiter-Glo cell proliferation assay, U87MG; format: cell-based; settings: Homo sapiens, U-87 MG, Glioma, mutation status PTEN
Procedure: as §14, §15, §9, §10, §13

[13] = test system: H2122; assay: CellTiter-Glo cell proliferation assay, H2122; format: cell-based; settings: Homo sapiens, NCI-H2122, Lung(NSCLC), mutation status K-RAS
Procedure: as §1, §2
1. […]
as §9, §10, §13, §12

[14] = test system: H520; assay: CellTiter-Glo cell proliferation assay, H520; format: cell-based; settings: Homo sapiens, NCI-H520, Lung(NSCLC), mutation status PTEN
Procedure: as §14, §15, §9, §10, §13

[15] = test system: PC3; assay: CellTiter-Glo cell proliferation assay, PC3; format: cell-based; settings: Homo sapiens, PC-3, Prostate, mutation status PTEN
Procedure: as §1, §2
1. […]
as §9, §10, §13, §12

[16] = test system: SKBR3; assay: CellTiter-Glo cell proliferation assay, SKBR3; format: cell-based; settings: Homo sapiens, SK-BR-3, Breast, mutation status WT
Procedure: as §14, §15, §9, §10, §13

T1 sequence (P42336 whole entry): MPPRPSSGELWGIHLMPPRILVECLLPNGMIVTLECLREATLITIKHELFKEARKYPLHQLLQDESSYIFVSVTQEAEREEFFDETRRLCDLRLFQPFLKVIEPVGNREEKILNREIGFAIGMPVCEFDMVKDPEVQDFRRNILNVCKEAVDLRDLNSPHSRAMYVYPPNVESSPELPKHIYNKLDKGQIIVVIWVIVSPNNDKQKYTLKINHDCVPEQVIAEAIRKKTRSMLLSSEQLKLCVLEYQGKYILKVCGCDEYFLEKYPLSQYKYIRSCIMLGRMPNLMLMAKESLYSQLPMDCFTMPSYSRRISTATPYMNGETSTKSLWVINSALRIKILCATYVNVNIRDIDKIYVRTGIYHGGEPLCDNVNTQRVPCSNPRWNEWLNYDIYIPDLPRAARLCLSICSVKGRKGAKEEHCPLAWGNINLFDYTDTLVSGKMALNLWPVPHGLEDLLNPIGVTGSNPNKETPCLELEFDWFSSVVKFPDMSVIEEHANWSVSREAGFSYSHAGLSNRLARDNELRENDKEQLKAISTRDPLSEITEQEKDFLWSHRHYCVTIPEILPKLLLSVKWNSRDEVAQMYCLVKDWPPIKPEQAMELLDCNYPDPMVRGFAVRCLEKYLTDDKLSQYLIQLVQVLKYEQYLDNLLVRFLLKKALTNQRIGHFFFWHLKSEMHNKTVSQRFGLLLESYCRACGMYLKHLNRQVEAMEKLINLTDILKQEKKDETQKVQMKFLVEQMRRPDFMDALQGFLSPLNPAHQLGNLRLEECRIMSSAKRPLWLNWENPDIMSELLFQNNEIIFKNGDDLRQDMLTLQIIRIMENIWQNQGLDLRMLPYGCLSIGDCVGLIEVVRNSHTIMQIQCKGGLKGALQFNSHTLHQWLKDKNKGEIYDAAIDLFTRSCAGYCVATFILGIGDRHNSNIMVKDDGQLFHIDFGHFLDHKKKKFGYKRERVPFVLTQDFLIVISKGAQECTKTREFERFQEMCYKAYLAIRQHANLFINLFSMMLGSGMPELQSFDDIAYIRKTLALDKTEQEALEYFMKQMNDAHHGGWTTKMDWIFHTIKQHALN
T1 sequence (P27986 whole entry partner): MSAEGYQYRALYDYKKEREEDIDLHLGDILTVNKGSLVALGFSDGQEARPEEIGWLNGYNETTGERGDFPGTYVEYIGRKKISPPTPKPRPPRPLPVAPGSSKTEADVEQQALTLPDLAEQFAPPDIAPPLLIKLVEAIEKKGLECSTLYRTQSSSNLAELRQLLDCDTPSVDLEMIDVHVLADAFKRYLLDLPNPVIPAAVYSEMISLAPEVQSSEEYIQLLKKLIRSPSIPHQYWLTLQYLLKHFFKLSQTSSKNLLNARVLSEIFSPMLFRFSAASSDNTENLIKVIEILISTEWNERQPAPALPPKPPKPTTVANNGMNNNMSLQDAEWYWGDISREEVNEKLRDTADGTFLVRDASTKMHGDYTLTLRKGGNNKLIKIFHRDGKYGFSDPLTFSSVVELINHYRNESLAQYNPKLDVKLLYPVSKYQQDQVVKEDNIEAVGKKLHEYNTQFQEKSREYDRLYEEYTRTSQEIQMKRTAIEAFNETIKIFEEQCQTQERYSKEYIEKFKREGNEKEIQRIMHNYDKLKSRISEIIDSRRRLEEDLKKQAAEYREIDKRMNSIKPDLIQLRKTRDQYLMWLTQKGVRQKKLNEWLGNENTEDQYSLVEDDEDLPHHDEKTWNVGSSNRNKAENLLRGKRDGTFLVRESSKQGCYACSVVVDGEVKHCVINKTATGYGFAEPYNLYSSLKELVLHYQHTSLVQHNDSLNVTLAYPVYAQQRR

| SMILES | pIC50 [1] | pEC50 [3] | pEC50 [5] | pEC50 [7] | pEC50 [9] | pEC50 [12] | pEC50 [13] | pEC50 [14] | pEC50 [15] | pEC50 [16] | pEC50 [2] | pEC50 [4] | pEC50 [6] | pEC50 [8] | pEC50 [10] | pEC50 [11] |
| --- | --- | --- | --- | --- | --- | --- | --- | --- | --- | --- | --- | --- | --- | --- | --- | --- |
| CC(C)n1ncnc1-c1cc2c(s1)-c1ccc(-c3cccc(C(=O)O)c3)cc1OCC2 [compound 147, 3-(2-(1-isopropyl-1H-1,2,4-triazol-5-yl)-4,5-dihydrobenzo[b]thieno[2,3-d]oxepin-8-yl)benzoic acid] | 7.68 |  |  |  |  |  |  |  |  |  |  |  |  |  |  |  |
| Nc1nc(-c2cc3c(s2)-c2ccc(C(=O)NCCO)cc2OCC3)n(-c2ccc(F)cc2F)n1 [compound 151, 2-(3-amino-1-(2,4-difluorophenyl)-1H-1,2,4-triazol-5-yl)-N-(2-hydroxyethyl)-4,5-dihydrobenzo[b]thieno[2,3-d]oxepine-8-carboxamide] | 9.70 |  |  |  |  |  |  |  |  |  |  |  |  |  |  |  |
| CN(CCC#N)C(=O)c1nc2c(s1)CCOc1cc(-c3cn[nH]c3)ccc1-2 [compound 153, 8-(1H-Pyrazol-4-yl)-4,5-dihydro-6-oxa-3-thia-1-aza-benzo[e]azulene-2-carboxylic acid (2-cyano-ethyl)-methyl-amide] | 7.24 |  |  |  |  |  |  |  |  |  |  |  |  |  |  |  |

Further lines, with some results ahead:

| pIC50 [1] | pEC50 [3] | pEC50 [5] | pEC50 [7] | pEC50 [9] | pEC50 [12] | pEC50 [13] | pEC50 [14] | pEC50 [15] | pEC50 [16] | SMILES | pEC50 [2] | pEC50 [4] | pEC50 [6] | pEC50 [8] | pEC50 [10] | pEC50 [11] |
| --- | --- | --- | --- | --- | --- | --- | --- | --- | --- | --- | --- | --- | --- | --- | --- | --- |
|  | 6.37 | 6.46 | 5.96 | 6.84 | 6.07 | 5.93 | 6.65 | 6.84 |  | CC(C)n1ncnc1-c1nc2c(s1)CCOc1cc(C3CCNCC3)ccc1-2 [compound 375, 2-(2-isopropyl-2H-[1,2,4]triazol-3-yl)-8-piperidin-4-yl-4,5-dihydro-6-oxa-3-thia-1-aza-benzo[e]azulene] | 6.62 | 6.65 | 6.82 | 6.13 | 5.76 | 5.76 |
|  | 5.79 | 5.79 | 5.58 | 6.24 |  | 5.00 |  | 5.52 | 5.76 | Cc1nc(-c2nc3c(s2)CCOc2cc(-c4cn(CCO)cn4)ccc2-3)n(C(C)C)n1 [compound 440, 2-{4-[2-(2-Isopropyl-5-methyl-2H-[1,2,4]triazol-3-yl)-4,5-dihydro-6-oxa-3-thia-1-aza-benzo[e]azulen-8-yl]-imidazol-1-yl}-ethanol] | 5.91 | 5.31 | 6.47 | 5.36 |  |  |
|  | 6.20 | 6.47 | 6.07 | 6.73 | 5.68 | 6.27 | 6.01 | 6.73 |  | CC(C)n1nc(N)nc1-c1nc2c(s1)CCOc1cc(C3CN(CCS(C)(=O)=O)C3)ccc1-2 [compound 463, 1-Isopropyl-5-{8-[1-(2-methanesulfonyl-ethyl)-azetidin-3-yl]-4,5-dihydro-6-oxa-3-thia-1-aza-benzo[e]azulen-2-yl}-1H-[1,2,4]triazol-3-ylamine] | 6.65 | 6.13 | 6.99 | 6.25 | 6.49 | 5.76 |
